Assay results published in patent publication US20240390301A1, “COMBINATIONS OF PERIPHERAL 5-HT2A RECEPTOR ANTAGONISTS AND CENTRAL 5-HT2A RECEPTOR AGONISTS” (priority 2021, published 2024).
Several values for one entry are separate records, joined by “and”; a condition that tells them apart may be missing. Identical values can stand only once. Like-named read-outs stand apart in the source and are kept apart here.

What was measured:
5-HT2B receptor = molecular target: T1, 5-HT2B receptor (Homo sapiens, UniProt P41595); assay: FLIPR Ca2+ flux functional assay, antagonist activity at 5-HT2B; format: cell-based; conditions: for 5-HT2B % Inh @ Max Dose: at max dose
T1 construct: host or cells: HEK293 (stably transfected)
Method: Key peripheral 5-HT2A receptors antagonists were tested for antagonist activity at several serotonin (5-HT) receptor subtypes (5-HT2A and 5-HT2B) using Ca^2+ flux functional assays, with the results summarized in Table 3. […] The ability to block peripheral 5-HT2B receptors in addition to 5-HT2A receptors is advantageous in the context of the present disclosure, as such blockade is likely to mitigate the potential cardiac valvulopathy induced by 5-HT2B receptor agonists. This is expected to be a potential side effect of many classical psychedelics, which activate 5-HT2B receptors as a secondary target. Accordingly, xylamidine and BW501C67 are preferred over Compound 14a for use in combination with 5-HT2A receptor agonists that also activate 5-HT2B receptors, since they also block this important off target. When taken together with the binding data presented above, xylamidine and BW501C67 appear to be potent pan-antagonists for 5-HT2-type receptors, whereas Compound 14a is selective for 5-HT2A receptors specifically.
Functional Assays at 5-HT2A and 5-HT2B. Antagonist activity at 5-HT2A and 5-HT2B receptors was determined using a FLIPR Ca^2+ flux assay at WuXi AppTec (Hong Kong) Limited according to their standard protocols. Briefly, stably transfected HEK293 cells expressing the receptor of interest were grown and plated in a 384 well plate and incubated at 37° C. and 5% CO2 overnight. This was combined with a fluorescent dye (Fluo-4 Direct™) to make a final assay concentration of 2.5 mM. Compounds were diluted 1:3.16 for 10 points and 750 nL was added to a 384 well compound plate using ECHO along with 30 μL assay buffer. The fluorescent dye was then added to the assay plate along with assay buffer to a final volume of 40 μL. The cell plate was incubated for 50 min at 37° C. and 5% CO2 and placed into the FLIPR Tetra along with the compound plate. 10 μL of references and compounds were then transferred from the compound plate into the cell plate and the fluorescent signal was read. Next, 10 μL of a 6× solution of 5-carboxamidotryptamine (5-CT) at the calculated EC80 was added and the fluorescent signal read again. Finally, the Max-Min signal was calculated for the runs with and without agonist.

5-HT2C receptor = molecular target: T2, 5-HT2C receptor (Homo sapiens, UniProt P28335); assay: biochemical; format: binding; conditions: HEK293 stable cell line, 2 nM [3H]mesulergine, 1 h, 25° C.; for Ki: read-out: 5-HT2C Ki (nM) ([3H]mesulergine)
T2 construct: WuXi AppTec (Hong Kong) Limited (contract laboratory that ran the assay)
T2 sequence (P28335 33-458): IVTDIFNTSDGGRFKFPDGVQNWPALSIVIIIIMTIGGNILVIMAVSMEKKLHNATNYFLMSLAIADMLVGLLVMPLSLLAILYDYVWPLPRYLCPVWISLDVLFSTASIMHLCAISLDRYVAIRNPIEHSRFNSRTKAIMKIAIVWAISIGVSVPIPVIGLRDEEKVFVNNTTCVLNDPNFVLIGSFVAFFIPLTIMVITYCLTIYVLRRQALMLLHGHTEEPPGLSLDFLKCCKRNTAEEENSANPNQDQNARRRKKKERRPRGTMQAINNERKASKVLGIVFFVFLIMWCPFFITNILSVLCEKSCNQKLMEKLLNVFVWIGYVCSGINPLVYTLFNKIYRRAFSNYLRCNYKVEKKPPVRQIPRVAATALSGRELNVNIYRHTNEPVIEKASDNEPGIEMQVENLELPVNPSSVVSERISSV

in vivo = assay: in vivo
Method: The pharmacokinetics of peripheral 5-HT2A antagonists were studied in the plasma (Tables 11 and 12) and brains (Table 13 and 14) of rats after subcutaneous (SC) dosing. The results were used to interpret the in vivo pharmacological results.
Animals. Male Sprague Dawley rats, aged 8-12 weeks. were used in these studies. Four rats were housed in each cage. […] Temperature and humidity were recorded by an auto-controlled data logger system. All animals were provided laboratory rodent diet and were fasted for 4 h pre-dose and 2 h post-dose. Reverse osmosis water treated with ultraviolet light was provided ad libitum. Animals were randomly assigned to treatment groups.
Drugs and Drug Administration. Test compounds were prepared as described above or commercially obtained. They were administered subcutaneously (SC) at a dose of 1 or 10 mg/kg (as indicated, calculated based on the free base) and at a volume of 5 mL/kg body weight.
Sample Collection and Bioanalysis. […] SC. […] For both studies, immediately after blood collection, plasma was harvested by centrifugation at 4,000 rpm for 10 min at 4° C. and samples were stored at −70±10° C. until bioanalysis. Following blood collection, animals were immediately sacrificed, the abdominal vena-cava was cut open, and the whole body was perfused from the heart using 10 mL of normal saline, and brain samples were collected from all animals. After isolation, brain samples were rinsed three times in ice-cold normal saline (for 5-10 seconds/rinse using ˜5-10 mL normal saline in disposable petri dish for each rinse) and dried on blotting paper. Brain samples were homogenized using ice-cold phosphate-buffered saline (pH 7.4). Total homogenate volume was three times the tissue weight. All homogenates were stored at −70±10° C. until bioanalysis. For bioanalysis, 25 μL aliquots of plasma/brain study samples or spiked plasma/brain calibration standards were added to individual pre-labeled micro-centrifuge tubes followed by 100 μL of an internal standard solution (glipizide, 500 ng/ml in acetonitrile) except for blanks, where 100 μL of acetonitrile was added. Samples were vortexed for 5 minutes and then centrifuged for 10 minutes at 4,000 rpm at 4° C. Following centrifugation, 100 μL of each clear supernatant was transferred to a 96-well plate and analyzed with a fit-for-purpose LC-MS/MS method, with authentic samples of each analyte used for calibration and identification.

[1] = antagonist activity, Ca2+ flux, HEK293 cells, agonist at EC80
[2] = male, Sprague Dawley, rat, in vivo, sc, 1 mg/kg
[3] = antagonist activity, Ca2+ flux, HEK293 cells, agonist at EC80, read-out: 5-HT2B IC50
[4] = male, Sprague Dawley, rat, in vivo, sc, 10 mg/kg

T1 sequence (P41595 whole entry): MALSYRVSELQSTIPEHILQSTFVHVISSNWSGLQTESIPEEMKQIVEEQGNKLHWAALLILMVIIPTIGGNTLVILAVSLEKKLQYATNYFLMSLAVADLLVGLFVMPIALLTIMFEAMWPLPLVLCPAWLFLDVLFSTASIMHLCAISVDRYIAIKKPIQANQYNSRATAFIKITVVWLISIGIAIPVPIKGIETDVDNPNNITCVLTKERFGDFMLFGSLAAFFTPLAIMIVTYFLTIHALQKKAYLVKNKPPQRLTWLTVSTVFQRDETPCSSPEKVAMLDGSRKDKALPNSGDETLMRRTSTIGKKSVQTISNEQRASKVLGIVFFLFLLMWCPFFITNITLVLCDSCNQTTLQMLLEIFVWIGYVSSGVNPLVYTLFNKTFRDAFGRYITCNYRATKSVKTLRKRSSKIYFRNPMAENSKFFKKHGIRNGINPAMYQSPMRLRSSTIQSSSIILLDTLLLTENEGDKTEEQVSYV

SMILES | 5-HT2B IC50 (nM) (5-HT2B receptor; [1]) | 5-HT2B % Inh @ Max Dose (5-HT2B receptor; antagonist activity, Ca2+ flux) | 5-HT2C Ki (nM) ([3H]mesulergine) (5-HT2C receptor) | Ki (5-HT2C receptor) | Cmax (in vivo; [2]) | concentration at 0.167 h (in vivo; [2]) | concentration at 0.5 h (in vivo; [2]) | half-life (in vivo; [2]) | IC50 (5-HT2B receptor; [3]) | concentration at 0.167 h (in vivo; [4]) | concentration at 0.5 h (in vivo; [4]) | also measured
CC(CNC(=N)CNc1ccccc1)Oc1cccc(Cl)c1.O=CO (centres unmarked) [BW501C67, N-(2-(3-chlorophenoxy)propyl)-2-(phenylamino)acetimidamide formate] | high potency antagonism | 99.74% | high affinity | 1.34 nM | 91.4 ng/mL and 32.3 ng/g | 91.4 ng/mL and 10.4 ng/g | 73.8 ng/mL and 13.6 ng/g | 187 min | – | – | – | IC50 (5-HT2B receptor): 21.6 nM; AUC(0-t) (in vivo; male, Sprague Dawley, rat, in vivo, sc, 1 mg/kg, AUC0-last (h*ng/mL), brain, 1 mg/kg SC): 436 ng·h/mL; AUC(0-t) (in vivo; male, Sprague Dawley, rat, in vivo, sc, 1 mg/kg, AUC0-last (h*ng/mL), plasma, 1 mg/kg SC): 277 ng·h/mL; Tmax (in vivo; male, Sprague Dawley, rat, in vivo, sc, 1 mg/kg, Tmax (h), brain, 1 mg/kg SC): 240 min; Tmax (in vivo; male, Sprague Dawley, rat, in vivo, sc, 1 mg/kg, Tmax (h), plasma, 1 mg/kg SC): 10.2 min
CC(C)COc1ccc(CNC(=O)N(Cc2ccc(F)cc2)C2CCN(C(=O)CC[C@H](N)C(=O)O)CC2)cc1 [Compound 14a, (S)-2-amino-5-(4-(1-(4-fluorobenzyl)-3-(4-isobutoxybenzyl)ureido)piperidin-1-yl)-5-oxopentanoic acid] | – | −12.17% | – | 106 nM | 271 ng/mL | 265 ng/mL | 271 ng/mL | 51 min | > 10000 nM | 966 ng/mL and 35.6 ng/g | 1530 ng/mL and 40.7 ng/g | AUC(0-t) (in vivo; [2]): 434 ng·h/mL; Tmax (in vivo; [2]): 30 min
COc1cccc(CCc2ccccc2OCC(CN(C)C)OC(=O)CCC(=O)O)c1 (centres unmarked) [sarpogrelate] | – | – | – | – | – | – | – | – | – | 2130 ng/mL and 28.9 ng/g | 2990 ng/mL and 31.8 ng/g | –
COc1cccc(C(=O)Nc2ccc(OCCN3CCOCC3)c(-c3ccnn3C)c2)c1 [temanogrel] | – | – | – | – | – | – | – | – | – | 411 ng/mL and 113 ng/g | 518 ng/mL and 148 ng/g | –
COc1cccc(OC(C)CNC(=N)Cc2cccc(C)c2)c1.O=C(O)C(F)(F)F (centres unmarked) [xylamidine, N-(2-(3-methoxyphenoxy)propyl)-2-(m-tolyl) acetimidamide trifluoroacetate] | high potency antagonism | 99.68% | high affinity | 1.45 nM | – | – | – | – | 13.3 nM | – | – | Tmax (in vivo; brain, 1 mg/kg SC): 60 min; t1/2 (in vivo; brain, 1 mg/kg SC): 289 min; 0.167 h (ng/g) brain concentration (in vivo; brain, 1 mg/kg SC, 0.167 h): 14.4 ng/g; 0.5 h (ng/g) brain concentration (in vivo; brain, 1 mg/kg SC, 0.5 h): 35.4 ng/g; Mean brain concentration 0.167 h (in vivo; brain, 10 mg/kg SC, 0.167 h): 100.8 ng/g; Mean brain concentration 0.5 h (in vivo; brain, 10 mg/kg SC, 0.5 h): 60.7 ng/g; AUC0-last (in vivo; plasma, 1 mg/kg SC): 343.6 ng·h/mL; Cmax (in vivo; plasma, 1 mg/kg SC): 155.4 ng/mL; Tmax (in vivo; plasma, 1 mg/kg SC): 10.2 min; t1/2 (in vivo; plasma, 1 mg/kg SC): 103 min; 0.167 h (ng/mL) plasma concentration (in vivo; plasma, 1 mg/kg SC, 0.167 h): 155.4 ng/mL; 0.5 h (ng/mL) plasma concentration (in vivo; plasma, 1 mg/kg SC, 0.5 h): 133.4 ng/mL; Mean plasma concentration 0.167 h (in vivo; plasma, 10 mg/kg SC, 0.167 h): 1099.2 ng/mL; Mean plasma concentration 0.5 h (in vivo; plasma, 10 mg/kg SC, 0.5 h): 670.0 ng/mL
